Assay results reported in US12077503B2, “Substituted cyclic amides and their use as herbicides” (FMC CORPORATION, priority 2015, dated 2024).

Columns and labels:
Format in all cases: in vivo
[1] = tested on: ragweed (common ragweed, Ambrosia elatior); test: Test A preemergence; conditions: Ambrosia artemisiifolia, pre-emergence, 240 h; for pest or weed control at 125 g/ha: 125 g ai/ha, preemergence, 0 to 100 scale where 0 is no effect and 100 is complete control, read-out: Ragweed plant response rating; for pest or weed control at 500 g/ha: 500 g ai/ha, Preemergence, visual injury vs untreated controls after approximately 10 d, read-out: Ragweed plant response rating (0 to 100 scale where 0 is no effect and 100 is complete control)
In short: (§1)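 Seeded soil received test chemicals as a preemergence directed spray, and seedlings at one to two leaves, 2–10 cm tall, received them postemergence, in a non-phytotoxic, surfactant-containing solvent mixture. Pots were held in a greenhouse for approximately 10 d, then rated for injury from 0, no effect, to 100, complete control.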

[2] = tested on: barnyardgrass (Echinochloa crus-galli); test: Test A preemergence; conditions: Echinochloa crus-galli, pre-emergence, 240 h; for pest or weed control at 125 g/ha: 125 g ai/ha, preemergence, 0 to 100 scale where 0 is no effect and 100 is complete control, read-out: Barnyardgrass plant response rating; for pest or weed control at 500 g/ha: 500 g ai/ha, Preemergence, visual injury vs untreated controls after approximately 10 d, read-out: Barnyardgrass plant response rating (0 to 100 scale where 0 is no effect and 100 is complete control)
In short: as §1

[3] = tested on: pigweed (Amaranthus retroflexus); test: Test A preemergence; conditions: Amaranthus retroflexus, pre-emergence, 240 h; for pest or weed control at 125 g/ha: 125 g ai/ha, preemergence, 0 to 100 scale where 0 is no effect and 100 is complete control, read-out: Pigweed plant response rating; for pest or weed control at 500 g/ha: 500 g ai/ha, Preemergence, visual injury vs untreated controls after approximately 10 d, read-out: Pigweed plant response rating (0 to 100 scale where 0 is no effect and 100 is complete control)
Kochia (Kochia scoparia) [4] = test: Test A preemergence; conditions: Bassia scoparia, pre-emergence, 240 h; for pest or weed control at 125 g/ha: 125 g ai/ha, preemergence, 0 to 100 scale where 0 is no effect and 100 is complete control, read-out: Kochia plant response rating; for pest or weed control at 500 g/ha: 500 g ai/ha, Preemergence, visual injury vs untreated controls after approximately 10 d, read-out: Kochia plant response rating (0 to 100 scale where 0 is no effect and 100 is complete control)
In short: as §1

[5] = tested on: ryegrass, Italian (Italian ryegrass, Lolium multiflorum); test: Test A preemergence; conditions: Lolium multiflorum, pre-emergence, 240 h; for pest or weed control at 125 g/ha: 125 g ai/ha, preemergence, 0 to 100 scale where 0 is no effect and 100 is complete control, read-out: Ryegrass, Italian plant response rating; for pest or weed control at 500 g/ha: 500 g ai/ha, Preemergence, visual injury vs untreated controls after approximately 10 d, read-out: Ryegrass, Italian plant response rating (0 to 100 scale where 0 is no effect and 100 is complete control)
In short: as §1

[6] = tested on: giant foxtail (Setaria faberii); test: Test A preemergence; conditions: Setaria faberi, pre-emergence, 240 h; for pest or weed control at 125 g/ha: 125 g ai/ha, preemergence, 0 to 100 scale where 0 is no effect and 100 is complete control, read-out: Foxtail, Giant plant response rating; for pest or weed control at 500 g/ha: 500 g ai/ha, Preemergence, visual injury vs untreated controls after approximately 10 d, read-out: Foxtail, Giant plant response rating (0 to 100 scale where 0 is no effect and 100 is complete control)
In short: as §1

[7] = tested on: barnyardgrass (Echinochloa crus-galli); test: Test A postemergence; conditions: Echinochloa crus-galli, post-emergence, 240 h, 125 g ai/ha, postemergence, visual injury rating after approximately 10 d; read-out: Barnyardgrass plant response rating (0 to 100 scale, 0 no effect, 100 complete control)
In short: as §1

Kochia (Kochia scoparia) [8] = test: Test A postemergence; conditions: Bassia scoparia, post-emergence, 240 h, 125 g ai/ha, postemergence, visual injury rating after approximately 10 d; read-out: Kochia plant response rating (0 to 100 scale, 0 no effect, 100 complete control)
In short: as §1

[9] = tested on: wheat (Triticum aestivum); test: Test A postemergence; conditions: Triticum aestivum, post-emergence, 240 h, 125 g ai/ha, postemergence, visual injury rating after approximately 10 d; read-out: Wheat plant response rating (0 to 100 scale, 0 no effect, 100 complete control)
In short: as §1

[10] = tested on: giant foxtail (Setaria faberii); test: Test A postemergence; conditions: Setaria faberi, post-emergence, 240 h, 125 g ai/ha, postemergence, visual injury rating after approximately 10 d; read-out: Foxtail, Giant plant response rating (0 to 100 scale, 0 no effect, 100 complete control)
In short: as §1

[11] = tested on: barnyardgrass (Echinochloa crus-galli); test: Test B flooded paddy test; conditions: Echinochloa crus-galli, Flood, 250 g ai/ha; scale of 0 to 100 where 0 is no effect and 100 is complete control; read-out: Barnyardgrass plant response rating
In short: (§2)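 Greenhouse paddy pots with 2-leaf stage plants received compound by direct addition to floodwater 3 cm deep, kept at that level. Scored visually at 13–15 d versus controls (0 no effect; 100 complete control).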

[12] = tested on: ducksalad (Heteranthera limosa); test: Test B flooded paddy test; conditions: Heteranthera limosa, Flood, 250 g ai/ha; scale of 0 to 100 where 0 is no effect and 100 is complete control; read-out: Ducksalad plant response rating
In short: as §2

rice (Oryra sativa) = test: Test B flooded paddy test; conditions: Oryza sativa, Flood, 250 g ai/ha; scale of 0 to 100 where 0 is no effect and 100 is complete control; read-out: Rice plant response rating
In short: as §2

[13] = tested on: sedge, umbrella (small-flower umbrella sedge, Cyperus difformis); test: Test B flooded paddy test; conditions: Cyperus difformis, Flood, 250 g ai/ha; scale of 0 to 100 where 0 is no effect and 100 is complete control; read-out: Sedge, Umbrella plant response rating
In short: as §2

SMILES | pest or weed control at 125 g/ha [1] [%] | pest or weed control at 500 g/ha [1] [%] | pest or weed control at 125 g/ha [2] [%] | pest or weed control at 500 g/ha [2] [%] | pest or weed control at 125 g/ha [3] [%] | pest or weed control at 500 g/ha [3] [%] | pest or weed control at 125 g/ha (Kochia (Kochia scoparia) [4]) [%] | pest or weed control at 500 g/ha (Kochia (Kochia scoparia) [4]) [%] | pest or weed control at 125 g/ha [5] [%] | pest or weed control at 500 g/ha [5] [%] | pest or weed control at 125 g/ha [6] [%] | pest or weed control at 500 g/ha [6] [%] | pest or weed control at 125 g/ha [7] [%] | pest or weed control at 125 g/ha (Kochia (Kochia scoparia) [8]) [%] | plant injury at 125 g/ha [9] [%] | pest or weed control at 125 g/ha [10] [%] | pest or weed control at 250 g/ha [11] [%] | pest or weed control at 250 g/ha [12] [%] | pest or weed control at 250 g/ha (rice (Oryra sativa)) [%] | pest or weed control at 250 g/ha [13] [%]
COc1cc(C(F)(F)F)ccc1[C@H]1CN(C)C(=O)[C@@H]1C(=O)Nc1ccccc1SC [Compound 860] | 0 | 50 | 90 | 90 | 60 | 90 | 0 | 60 | 20 | 40 | 90 | 90 | 30 | 0 | 20 | 60 | 0 | 90 | 0 | 0
CSc1ccccc1NC(=O)[C@H]1C(=O)NC[C@@H]1c1cccc2c1OC(F)(F)O2 [Compound 865] | 0 | 0 | 0 | 70 | 0 | 0 | 0 |  | 0 | 0 | 0 | 80 | 0 | 0 | 0 | 0 | 0 | 60 | 30 | 30
CSc1ccccc1NC(=O)[C@H]1C(=O)N(C)C[C@@H]1c1cc(F)c(F)c(F)c1 [Compound 866] | 0 | 30 | 30 | 90 | 0 | 50 | 20 | 80 | 50 | 70 | 90 | 90 | 60 | 20 | 0 | 70 | 35 | 90 | 35 | 35
